Data set [1] relates to EGFR+ BaF3 tumors expressing S2 vCyD. The data set is described as follows: In vivo cytosine deaminase activity. Also noted: species or system mice. Conditions: daily dosing of 5-FC. The procedure:
In vivo cytosine deaminase activity. Mice were randomized into three arms (five mice/arm).
Tumors were allowed to grow for 12 days, and then once-daily treatment was initiated. The wild-type arm and one of the S2 vCyD arms received 800 uL 500 mg/kg 5-FC via ip injection. The second S2 vCyD arm received 800 uL vehicle control (sterile PBS). Tumor volumes were measured every other day.

Data set [2] relates to EGFR L858R transformed cell population. The data set is described as follows: Prototype dual-switch selection drive in vitro (FIG. 3). In kind it is cell-based.
Source text: The dual-switch drive engineers the evolutionary dynamics of an EGFR L858R transformed cell population in vitro. […] Rimiducid is removed to inactivate switch 1 driven drug resistance in the gene drive cell.
Data set [3] has as its system mixed wild-type and S2 vCyD BaF3 cells. The data set is described as follows: Enzyme-prodrug bystander assay (vCyD, BaF3). In kind it is cell-based, murine. Conditions: 1 mM 5-FC. The procedure: Enzyme-prodrug bystander assays (vCyD and vNfsA). To evaluate the S2 vCyD system, populations of wild-type and cytosine deaminase-expressing BaF3 cells were mixed at defined ratios and seeded at 30k/well in 96-well plates in triplicate, and 1 mM 5-FC was added. Cell viability was measured after 48 hours using CellTiter-Glo and normalized to untreated controls. Similarly, wild-type and S1vEGFRosi-S2vCyD PC9 cells were mixed, seeded at 20k/well, and treated with 1 mM 5-FC.

The next data set deals with PC9 cell line. The data set is described as follows: Switch 2 sensitivity of cancer cell lines (PC9). The format is cell-based. From the text:
(§1) Personalize switch 2 designs for different NSCLC tumors. Quantitative models (FIG. 5) have identified the extent of switch 2 bystander driven killing as a key factor in gene drive success. This effect is larger in from spatial systems (2D/3D) (FIG. 10). Pharmacologically, the toxin responsible for the bystander effect must be diffusible and have a half-life on the order of hours to be evolutionarily useful. Prototypes used here meet these transport constraints, but some cancer cell types display differential biological sensitivity to distinct switch 2 metabolites. […] Cell and organoid type specificity in Switch 2 designs is assessed in a larger number of genetically defined NSCLC cell line (FIGS. 8 and 10).

Data set [4] relates to RET fusion driven cancer cell line. The data set is described as follows: Switch 2 sensitivity of cancer cell lines (RET line). The format is cell-based.
Source text: as §1

Another data set deals with S1 vEGFRerl BaF3 cells. The data set is described as follows: BaF3 dimerizer-dependence assay (growth rate). Conditions: absence of IL-3; range of dimerizer concentrations. In kind it is cell-based, murine. The procedure:
BaF3 dimerizer-dependence assays. S1 vEGFRerl BaF3s were seeded in 12-well plates at 100k/well with dimerizer (AP20187, Takara) in triplicate. Cell counts were measured on a hemocytometer every day for four days, and an exponential curve was fit to the data to estimate growth rates.

The test system of the next data set is S1 vEGFRerl BaF3 tumors. The data set is described as follows: Engineered Switch 1 BaF3 in vivo model (dimerizer-dependence). The note with it: once-daily dimerizer, range of doses, 12 days. Also noted: species or system mice. The protocol: Engineered Switch 1 BaF3 in vivo models. All animal experiments were conducted under a protocol approved by the Institutional Animal Care and Use Committee. In the dimerizer-dependence in vivo experiment, S1 vEGFRerl BaF3 cells were subcutaneously grafted on both flanks (3.5M/flank) of NOD-SCID mice (Jackson Labs). Mice were randomized into four arms (0, 0.1, 1, and 10 mg/kg dimerizer) of 3 mice each. Mice received 100 uL dimerizer or vehicle control (2% Tween in PBS) once daily via intraperitoneal injection. Tumor volumes were measured with calipers following 12 days of treatment.

The test system of data set [5] is S1 vEGFRerl EGFR+ NSCLC PC9 cells. The data set is described as follows: Erlotinib dose response in Switch 1 PC9 cells. The format is cell-based, human. Conditions: erlotinib with or without dimerizer. The protocol: Drug dose response assays. In general, all 1C50 measurements were conducted similarly. Cells were seeded in 96-well plates at 3k/well triplicate. Adherent cells were given 24 hours before the addition of drug. Cell viability was measured three days after drug treatment using CellTiter-Glo 2.0 (Promega) and luminescence values were normalized to vehicle control conditions.

Data set [6] has as its system phospho-EGFR and phospho-ERK. The data set is described as follows: Immunoblotting of EGFR/MAPK signaling in PC9 cells. In kind it is cell-based, human. The note with it: erlotinib-treated S1 vEGFRerl PC9 cells, dimerizer added. (In western blotting, separated proteins are transferred to a membrane and probed.)
In data set [7] the test system is mixed-population PC9 tumors. The data set is described as follows: Gene drive in PC9 tumors in vivo.
Method: To test this, mixtures of 50% gene drive and 50% resistant PC9 cells were generated to reflect a possible population structure at the beginning of Switch 2. These pooled populations were grafted in mice. The mice were then treated with Switch 2 drugs (osimertinib and 5-FC) with or without concurrent Switch 1 engagement (dimerizer).
Finally, these findings were performed in a full-term gene drive experiment in vivo.
Data set [8] deals with Early passage wild-type PC9 cells. The data set is described as follows: Early passage wild-type PC9 culture in EGFR inhibitors. Conditions: even at high concentrations. In kind it is cell-based.
Data set [9] concerns mixed-population EGFR+ BaF3 tumors. The data set is described as follows: Gene drive in BaF3 tumors in vivo. Also on record: species or system mice. Conditions: tumors lacking gene drive cells, daily erlotinib.
In data set [10] the test system is pooled sensitive, resistant and immune gene drive PC9 cells. The data set is described as follows: Immune gene drive growth tracking in PC9 mixed populations. In kind it is cell-based, human. The note with it: lacking gene drive cells.
Data set [11] relates to PC9 cells transduced with EGFR variant library. In kind it is cell-based, human.
For the next data set, the system named is CRISPRko PC9 population. The format is cell-based, human.
Data set [12] relates to RET+ thyroid carcinoma TPC1 cells. The data set is described as follows: RET gene drive growth tracking in TPC1 mixed populations. In kind it is cell-based, human. The note with it: absence of gene drive cells, pralsetinib. The procedure: Gene drive growth tracking. Populations of sensitive, mCherry+ resistant, and GFP+ gene drive cells were mixed together. Except where otherwise noted, mixed populations consisted of 0.5% resistant cells and 5% gene drive cells. Cells were seeded in 24-well plates (1.5M/well for BaF3s and 50k/well for adherent cells) in triplicate, with the exception of the gene-drive titer experiment where 3M/well BaF3s were seeded in 6-well plates in order to maintain sufficient cell numbers for low spike-in conditions. […] For Switch 2 conditions, 500 μM 5-FC replaced dimerizer in the above formulations.
Cell counts were measured every other day. For counts of adherent cells, wells were washed with PBS, trypsinized, and then resuspended in RPMI. Cell suspensions were transferred to microcentrifuge tubes, vortexed, and a small aliquot (6%) was analyzed by flow cytometry (BD Accuri) to get subpopulation cell counts. The remaining cells were spun down (1k g for 5 min), the supernatant was aspirated, and the cell pellet was resuspended in fresh RPMI and seeded onto a new plate. Fresh drug was added immediately. In general, Switch 2 treatment began when the gene drive population exceeded 60% of the day 0 cell counts. Cells were monitored for 2-3 weeks after apparent eradication to ensure that no remaining cells grew back.

For data set [13] the following is noted: in vivo; cited from earlier work.
Data set [14] concerns CD19+ and CD19- PC9 cells. The data set is described as follows: Immune bystander assay (vCD19). The format is cell-based, human. Conditions: co-culture with primary T cells and blinatumomab. The protocol:
Immune bystander assays (vCD19). PBMCs were sourced from Astarte and T cells were expanded using CD3/CD28 dynabeads (1:100 bead: cell ratio). For the immune bystander experiments, CD19+ and CD19-PC9 cells were seeded 1:1 in 24 wells plates at 60k/well. After 24 hours, 1 ng/mL blinatumomab was added to all wells. At the same time, freshly-thawed T cells were added at the appropriate concentration. Each target: effector ratio was conducted in triplicate. After 48 hours, the supernatant and resuspended adherent cells were pooled and analyzed according to the following staining protocol. Cells were spun down (750 g for 3 min) and resuspended in 50 uL Fc block buffer. After a 10 minute incubation, 100 uL antibody mixture (anti-CD3/FITC and anti-CD19/APC) was added. The cell suspension was incubated at 4C for 20 minutes. After three washes in PBS with 1% BSA, the cell suspension was analyzed by flow cytometry.

Turning to `Nc1nc(=O)[nH]cc1F` [5-FC], the tumor response result in data set [1] is “rapid tumor regression”. The “effect on resistant population when switch 2 is induced” value in data set [2] (5-FC added, rimiducid removed, erlotinib maintained) was “kills the resistant population”. Further, the “killing in mixed cultures (bystander effect)” value in data set [3] is on record as “significantly higher killing than expected”. The “sensitivity to cytosine deaminase>5-FC pair” value in the data set on PC9 cell line is recorded as “more modestly sensitive”. Further, the “sensitivity to cytosine deaminase->5-FC pair” value in [4] is listed as “highly sensitive”.

In the case of `CC[C@H](C(=O)N1CCCC[C@H]1C(=O)O[C@H](CCc1ccc(OC)c(OC)c1)c1cccc(OCC(=O)NCC(CNC(=O)COc2cccc([C@@H](CCc3ccc(OC)c(OC)c3)OC(=O)[C@@H]3CCCCN3C(=O)[C@@H](CC)c3cc(OC)c(OC)c(OC)c3)c2)CN(C)C)c1)c1cc(OC)c(OC)c(OC)c1` [dimerizer], the “growth of S1 vEGFRerl BaF3 cells” value with S1 vEGFRerl BaF3 cells is “Stimulated growth”. In the data set on S1 vEGFRerl BaF3 tumors, the tumor growth result is “stimulated tumor growth”. For the same compound, the “inducible drug resistance phenotype” value in data set [5] was “causes inducible drug resistance”. In addition, the “MAPK signaling (western blot)” value in data set [6] is given as “rescues MAPK signaling”. Further, the time to progression entry in data set [7] (50% gene drive/50% resistant, osimertinib and 5-FC with temporary dimerizer vs without) is on record as “exhibited a longer time to progression”.

In the case of `C#Cc1cccc(Nc2ncnc3cc(OCCOC)c(OCCOC)cc23)c1` [erlotinib], in data set [2], the “effect on sensitive EGFR-L858R+ transformed cells” value was “killed”. Besides, in [8], the population response result is “initial regression followed by rapid outgrowth”. Besides, in [9], the tumor dynamics result was “initially regressed and then relapsed”.

Turning to `C=CC(=O)Nc1cc(Nc2nccc(-c3cn(C)c4ccccc34)n2)c(OC)cc1N(C)CCN(C)C` [osimertinib], in data set [10], the “outcome of mixed population” value was “Resistance emerged”. Also, in data set [8], the population response result is reported as “initial regression followed by rapid outgrowth”. The “time of treatment to osimertinib resistance” value in data set [11] is 2-3 weeks. Further, the population dynamics entry in the data set on CRISPRko PC9 population is “initial decrease in population size, followed by the outgrowth of resistance”. The tumor response entry in data set [7] (mouse, in vivo) was “eventually became refractory to osimertinib treatment”.

For the compound `CO[C@]1(C(=O)N[C@@H](C)c2ccc(-n3cc(F)cn3)nc2)CC[C@H](c2nc(C)cc(Nc3cc(C)[nH]n3)n2)CC1` [pralsetinib], the “outcome of mixed population” value in data set [12] is given as “selected for pre-existing G810R resistance”.

Take `CC[C@H](C(=O)N1CCCC[C@H]1C(=O)O[C@H](CCc1ccc(OC)c(OC)c1)c1cccc(OCC(=O)NCCNC(=O)COc2cccc([C@@H](CCc3ccc(OC)c(OC)c3)OC(=O)[C@@H]3CCCCN3C(=O)[C@@H](CC)c3cc(OC)c(OC)c(OC)c3)c2)c1)c1cc(OC)c(OC)c(OC)c1` [rimiducid]: the clinical exposure in [13] is 0.1 to 1000 nM. The “effect of rimiducid-induced gene drive population on pre-existing resistance” value in data set [2] (switch 1, erlotinib maintained) was “inhibits the growth of pre-existing resistance”.

For “blinatumomab: bispecific CD3/CD19 T cell engager”, in data set [14], the “effect on S2 vCD19 (antigen-positive) cells” value is “targeted by the T cells” and the “effect on wild-type, antigen-negative cells (immune bystander activity)” value is on record as “affected as well”.

The values above are taken from US20250228971A1, “DESIGN AND CONSTRUCTION OF EVOLUTIONARY-GUIDED "SELECTION GENE DRIVE" THERAPY” (THE PENN STATE RESEARCH FOUNDATION, priority 2022, published 2025).
